Measured values taken from patent US6534289B1, “Nucleic acids encoding mGLuR/CaR chimera” (NPS Pharmaceuticals, Inc., priority 1995, dated 2003).

What was measured:
[1] = test system: HEK293 cells expressing pCEPCaR/R1; assay: HEK293/pCEPCaR/R1 Fura assay; format: cell-based, human; details: fura-2 loaded stably transfected HEK293 cells, FIG. 9
Method: The DNA from plasmid pCaR/R1 was digested and cloned into the commercially available episomal mammalian expression vector, pCEP4 (Invitrogen), using the restriction enzymes Kpn I and Not I. The ligation products were transfected into DH5a cells which had been made competent for DNA transformation. […] A clone was selected from the colonies which grew. This clone, pCEPCaR/R1 was characterized by restriction enzyme digestion.
Human embryonic kidney cells (293, ATCC, CRL 1573) were grown in a routine manner. Cells were plated in 10 cm cell-culture plates in Dulbecco's modified Eagle's medium (D-MEM) containing 10% fetal calf serum (FCS) and 1×Penicillin-Streptomycin (PS, Life Technologies) so that they would be ˜70% confluent after an overnight incubation. […]
Measurements of intracellular calcium release in response to increases in extracellular calcium is quantitated using the Fura assay (Parks et al. 1989). […] Measurements of fluorescence are performed at 37° C. with constant stirring using a custom-built spectrofluorimeter (Biomedical Instrumentation Group, University of Pennsylvania). […] To calibrate fluorescence signals, digitonin (Sigma, St. Louis, Mo.; catalog # D 5628; 50 μg/ml, final) is added to obtain Fmax, and the apparent Fmin is determined by adding EGTA (10 mM, final) and Tris base (pH ˜10, final). […]

human CaR = target: T1, human CaR (Homo sapiens, UniProt P41180); assay: Xenopus oocyte voltage clamp, Cl− currents, CaR; format: cell-based
T1 construct: expressed in transfected cells; host or cells: Xenopus laevis oocytes injected with in vitro transcribed RNA from phPCaR4.0
T1 sequence (P41180 20-1078): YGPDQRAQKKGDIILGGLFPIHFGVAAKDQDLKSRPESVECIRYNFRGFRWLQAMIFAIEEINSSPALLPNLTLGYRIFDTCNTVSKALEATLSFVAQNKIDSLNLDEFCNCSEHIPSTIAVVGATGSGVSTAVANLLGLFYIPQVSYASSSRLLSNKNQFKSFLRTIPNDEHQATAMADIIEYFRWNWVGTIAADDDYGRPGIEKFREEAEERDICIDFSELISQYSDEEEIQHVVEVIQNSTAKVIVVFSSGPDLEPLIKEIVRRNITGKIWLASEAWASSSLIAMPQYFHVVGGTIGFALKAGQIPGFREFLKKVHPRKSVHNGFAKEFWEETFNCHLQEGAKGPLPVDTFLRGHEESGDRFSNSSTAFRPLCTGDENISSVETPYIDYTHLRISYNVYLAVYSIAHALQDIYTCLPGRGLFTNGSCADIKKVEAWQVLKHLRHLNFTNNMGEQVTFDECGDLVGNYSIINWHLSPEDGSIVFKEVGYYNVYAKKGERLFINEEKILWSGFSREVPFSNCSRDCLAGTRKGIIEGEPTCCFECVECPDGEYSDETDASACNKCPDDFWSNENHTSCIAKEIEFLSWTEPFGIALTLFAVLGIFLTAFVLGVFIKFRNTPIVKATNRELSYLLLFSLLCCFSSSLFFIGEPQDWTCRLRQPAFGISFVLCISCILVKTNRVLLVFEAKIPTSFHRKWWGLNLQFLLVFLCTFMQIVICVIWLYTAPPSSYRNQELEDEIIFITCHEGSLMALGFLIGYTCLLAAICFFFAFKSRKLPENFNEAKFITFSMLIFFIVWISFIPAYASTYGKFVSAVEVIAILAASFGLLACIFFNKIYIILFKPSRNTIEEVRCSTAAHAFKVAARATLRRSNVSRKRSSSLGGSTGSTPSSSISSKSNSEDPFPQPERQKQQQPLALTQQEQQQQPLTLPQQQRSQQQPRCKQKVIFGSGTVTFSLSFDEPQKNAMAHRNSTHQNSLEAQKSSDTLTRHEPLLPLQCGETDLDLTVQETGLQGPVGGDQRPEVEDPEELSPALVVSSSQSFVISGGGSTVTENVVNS

mGluR1/CaR = target: T2, mGluR1/CaR (UniProt P23385+P41180); assay: Xenopus oocyte voltage clamp, Cl− currents, mGluR1/CaR chimera; format: cell-based, rat mGluR1 / human calcium receptor; details: FIG. 6
T2 construct: expressed in transfected cells; host or cells: Xenopus laevis oocytes injected with in vitro transcribed RNA
T2 sequence (P23385+P41180 fused): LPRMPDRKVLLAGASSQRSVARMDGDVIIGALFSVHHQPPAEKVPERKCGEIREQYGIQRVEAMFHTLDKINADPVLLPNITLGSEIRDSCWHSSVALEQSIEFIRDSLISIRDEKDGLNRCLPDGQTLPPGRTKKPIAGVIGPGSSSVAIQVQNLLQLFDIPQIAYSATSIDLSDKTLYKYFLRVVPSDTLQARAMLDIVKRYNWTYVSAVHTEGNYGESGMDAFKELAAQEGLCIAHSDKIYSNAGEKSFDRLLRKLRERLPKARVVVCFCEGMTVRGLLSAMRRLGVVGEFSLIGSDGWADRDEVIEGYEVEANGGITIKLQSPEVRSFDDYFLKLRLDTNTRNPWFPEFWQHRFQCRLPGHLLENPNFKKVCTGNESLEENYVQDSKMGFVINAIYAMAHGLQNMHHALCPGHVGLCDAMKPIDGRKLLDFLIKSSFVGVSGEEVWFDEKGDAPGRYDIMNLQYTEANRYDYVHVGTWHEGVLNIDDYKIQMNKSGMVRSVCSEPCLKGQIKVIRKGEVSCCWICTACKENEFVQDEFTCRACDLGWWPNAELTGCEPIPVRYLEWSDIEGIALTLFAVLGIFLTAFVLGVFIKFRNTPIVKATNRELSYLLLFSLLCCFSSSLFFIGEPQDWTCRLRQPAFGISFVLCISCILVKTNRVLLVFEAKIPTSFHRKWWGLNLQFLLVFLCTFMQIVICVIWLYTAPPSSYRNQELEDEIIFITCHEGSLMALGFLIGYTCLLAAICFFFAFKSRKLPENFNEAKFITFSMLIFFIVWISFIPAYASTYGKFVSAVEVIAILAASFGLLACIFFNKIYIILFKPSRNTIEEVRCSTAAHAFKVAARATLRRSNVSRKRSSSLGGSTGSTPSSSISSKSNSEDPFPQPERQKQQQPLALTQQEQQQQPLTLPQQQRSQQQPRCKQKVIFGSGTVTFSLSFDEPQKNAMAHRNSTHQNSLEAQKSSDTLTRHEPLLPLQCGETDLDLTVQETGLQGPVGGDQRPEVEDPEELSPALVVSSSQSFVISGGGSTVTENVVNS

**Q.** Which results are given for `[Ca+2]` [calcium]?
**A.** intracellular calcium [1]: increases in intracellular calcium; activation of CaR, response amplitudes (Cl− currents in response to increases in intracellular Ca^2+) (human CaR; Xenopus oocyte, increasing extracellular calcium, FIG. 7): activation

**Q.** `N[C@@H](CCC(=O)O)C(=O)O` [l-glutamate] was tested. Which “Cl− current” value (human CaR; Xenopus oocytes injected with human CaR RNA, FIG. 8B) did it give?
**A.** elicits oscillatory increases in Cl− current

**Q.** How did the “activation of mGluR1/CaR as measured by Cl− currents generated in response to the release of intracellular Ca^2+” value (mGluR1/CaR) turn out when `N[C@@H](Cn1oc(=O)[nH]c1=O)C(=O)O` [quisqualate] was run?
**A.** activation
